{
  "source": "patent US20250340648A1",
  "about": "“COMBINATION THERAPY FOR TREATMENT OF CANCER COMPRISING ANTI-PD-L1 AND ANTI-CD73 ANTIBODIES” (MedImmune Limited, priority 2022, published 2025)",
  "key": {"[1]": {"system": "CT26 (colorectal) tumor cells", "assay": "CT26 syngeneic mouse tumor model", "assay_type": "in vivo, BALB/c mice", "conditions": "CT26 tumors; result in words", "procedure": "(§1) In vivo studies were performed using 8-10 week old BALB/cAnNCrl mice (Charles River UK) or C57BL/6. Mice were housed in an AstraZeneca vivarium with access to food and water ad libidum and were cared for daily by trained personnel. Mice were acclimatized to the vivarium conditions for a week and handled according to the Home Office Animals Scientific Procedures Act, 1986, UK. All animal work was carried out under a Home Office approved project licence (PPL P49077891) and […] (RTx studies) as well as according to the institutional guidelines. BALB/c mice were subcutaneously implanted with 0.5e6 CT26 (colorectal) tumor cells. […] Tumors were measured with callipers three times a week, starting from day-5. […]\n(§2) All in vivo data were collated in the Excel spreadsheets and transferred to GraphPad Prism 9.00 (GraphPad Software Inc.) for graphical representation and statistical analysis. After outlier identification and Shapiro-Wilk test for normality distribution, statistical significance was determined by One-way ANOVA followed by Dunnett's multiple comparison for comparisons of more than two groups if data were normally distributed. […] Survival studies were analysed with a log rank (Mantel-Cox) test, comparing only two survival curves at a time. […]"}, "[2]": {"system": "MCA205 (fibrosarcoma) tumor cells", "assay": "MCA205 syngeneic mouse tumor model", "assay_type": "in vivo, C57BL/6 mice", "conditions": "MCA205 tumors; result in words", "procedure": "as §1, §2"}, "CT26 transcriptome": {"system": "CT26 transcriptome", "assay": "RNAseq of treated CT26 tumors", "assay_type": "in vivo, Mus musculus", "procedure": "Tumor tissue was flash-frozen in liquid nitrogen and stored at −80° C. at the time of collection in the animal unit and was sent to Novogene on dry ice. Tissue processing and RNA extraction was carried out by Novogene Co. by using the QIAGEN RNeasy Plus Universal kit (Qiagen, Cat. No. 73404), according to the manufacturer's protocol. Briefly, tissue samples were homogenized in QIAzol Lysis Reagent. The homogenate was then separated into aqueous and organic phases by centrifugation after addition of gDNA eliminator solution and chloroform. The upper, aqueous phase containing RNA was collected, and RNA purified using RNeasy spin columns. RNA quality check (QC) was performed by 1% Agarose gel electrophoresis, amount and purity were measured by Nanodrop, and RNA […] Number (RIN) was obtained by Bioanalyzer Agilent2100.\nNEBNextR Ultra RNA library prep kit (Cat. No. E7530L) was used for library preparation for sequencing. Samples were sequenced using Illumina PE150 (50M reads/sample) bulk RNA-seq and downstream bioinformatic analysis was performed.\nReads were mapped to Mus musculus genome (mm10) genome using Star (Dobin A et al., Bioinformatics 2013; 29:15-21). Uniquely mapped reads were counted using htseq-count (Putri GH et al., Bioinformatics 2022; 38:2943-5). DESeq2 (Love M I et al., Genome Biol 2014; 15) was used to normalize counts with size factors and identify differentially expressed genes across conditions with a threshold of abs (log2FC)>1 and adjusted p value<0.05.\n(§3) Gene set enrichment analysis was performed using R package ‘fGSEA’ (Korotkevich G et al., bioRxiv 2021; 060012) using hallmark gene sets from mouse MSigDB (Subramanian A. et al., Proc Natl Acad Sci USA 2005; 102:15545-50). Enrichment p-values were calculated as described in Korotkevich G et al., bioRxiv 2021; 060012 and p-values were adjusted using Benjamini-Hochberg method. Gene ontology Biological Process enrichments were identified using R package topGO (Bioconductor-topGO) with adj-pval<0.05. KEGG pathway enrichment analysis was conducted using R package clusterProfiler (Wu T. et al., The Innovation 2021; 2:100141). MCPCounter tool (Becht E. et al., Genome Biol 2016; 17:1-20) was used to estimate immune cell abundances for each sample and condition using immune gene signatures within MCPCounter."}, "[3]": {"system": "adenosine pathway metabolites", "assay": "Mass Spectrometry Imaging of CT26 tumors", "assay_type": "in vivo, mouse", "procedure": "Tumors were snap frozen in liquid nitrogen immediately after resection and the frozen tissues were embedded in a HPMC/PVP hydrogel as previously described (Dannhorn A. et al., Anal Chem 2020; 92:11080-8). Sectioning was performed on a CM3050 S cryostat (Leica Biosystems, Nussloch, Germany) at a section thickness of 10 um and the tissue sections were immediately thaw mounted and dried under a stream of nitrogen and sealed in vacuum pouches to preserve the metabolic integrity of the sections. Tissue sections for DESI-MSI and IMC were thaw-mounted onto Superfrost microscope slides (VWR, Cat. No. 630-2863), whilst sections prepared for MALDI-MSI were thaw mounted onto conductive indium tin oxide (ITO) coated slides (Bruker Daltonik, Cat. No. 8237001). Polyvinylpyrrolidone (PVP) and (Hydroxypropyl) methylcellulose (HPMC) (purchased from Merck (Cat. No.PVP360; H8384). Methanol (Cat. No. 15624680), iso-pentane (Cat. No. 15692830) and isopropyl alcohol (Cat. No. 10674732) were obtained from Fisher Scientific.\nDESI-MSI analysis was performed on a Q-Exactive mass spectrometer (Thermo Scientific, Bremen, Germany) equipped with an automated 2D-DESI ion source (Prosolia Inc., Indianapolis, IN, USA) operated in negative ion mode, covering the applicable mass range up to m/z of 1000, with a nominal mass resolution of 70,000. […]"}, "[4]": {"system": "immune cell populations in the treated CT26 tumors", "assay": "MCP-Counter estimate of immune cell abundance from RNAseq", "parameters": "species or system mouse", "conditions": "MCP counter on RNAseq", "procedure": "as §3\nNext we checked if the gene perturbation at this scale also led to changes in the enumeration of the cell populations. For this we estimated the abundance of immune cell populations in the treated CT26 tumors, using the MCP-Counter tool (Becht E, et al., Genome Biol 2016; 17:1-20)."}, "[5]": {"conditions": "CT26 tumors vs control, abs(log2FC)>1, adjusted p<0.05"}, "[6]": {"conditions": "CT26 tumors, component added to the other parts of aCD73+aPD-L1+5FU+OHP"}, "[7]": {"conditions": "component within aCD73+aPD-L1+5FU+OHP, not modulated in other iterations"}},
  "note": "“Also recorded” adds a separate entry of the source.",
  "data": [
    {"substance": "5-fluorouracil (5FU)+oxaliplatin (OHP) [5FU+OHP]", "values": [
      {"measurement": "tumor growth inhibition / efficacy", "setting": "[1]", "value": "supressed tumor growth rates; also recorded: retarded tumor growth in a proportion of drug recipients"},
      {"measurement": "tumor growth inhibition / efficacy", "setting": "[2]", "value": "supressed tumor growth rates; also recorded: retarded tumor growth in a proportion of drug recipients"},
      {"measurement": "Down-regulated genes", "setting": "CT26 transcriptome; [5]", "value": 158, "unit": "genes"},
      {"measurement": "Up-regulated genes", "setting": "CT26 transcriptome; [5]", "value": 277, "unit": "genes"},
      {"measurement": "differentially expressed (DE) genes", "setting": "CT26 transcriptome; [5]", "value": 435, "unit": "DE DE genes"},
      {"measurement": "Up-regulated genes", "setting": "CT26 transcriptome; CT26 tumors vs control, abs(log2FC)>1, adjusted p<0.05, listed as FF", "value": 277, "unit": "Up- genes"},
      {"measurement": "genes downregulated when the named component is included in the combination", "setting": "CT26 transcriptome; [6]", "value": "IL-10, IL-1b, CXCL2, S100A8"},
      {"measurement": "genes upregulated or notably influenced when the named component is included in the combination", "setting": "CT26 transcriptome; [6]", "value": "Interferon-gamma, TRIM6, CCL17, Granzyme B, GDF15, perforin and Lag3"},
      {"measurement": "individual genes downregulated", "setting": "CT26 transcriptome; CT26 tumors, gene names", "value": "CXCL2 expression was reduced; also recorded: CXCL2, IL-1b, CD103 and XCR1"},
      {"measurement": "individual genes upregulated", "setting": "CT26 transcriptome; CT26 tumors, gene names", "value": "CCL3, 4, 8, 17, CXCL10, GDF15, CD8a, IFNγ, Perforin, Granzyme, Lag-3 and PD-1; also recorded: IFN-Y, CCL3, CCL8, Lag-3 and granzyme B; also recorded: elevated ARORA2 gene expression"},
      {"measurement": "DE genes due to addition of the named component", "setting": "CT26 transcriptome; aCD73+aPD-L1+5FU+OHP vs the combination without the component, Abs(log2FC)>=1, Adj-pval<0.05", "value": 546, "unit": "DE genes"},
      {"measurement": "genes uniquely downregulated by the named component", "setting": "CT26 transcriptome; [7]", "value": 122, "unit": "genes"},
      {"measurement": "genes uniquely upregulated by the named component", "setting": "CT26 transcriptome; [7]", "value": 360, "unit": "genes"},
      {"measurement": "ATP abundance (MSI)", "setting": "[3]; compared to control treated tumors", "value": "modest increase"},
      {"measurement": "AMP abundance (MSI)", "setting": "[3]; compared to other treatment groups", "value": "modest increase"},
      {"measurement": "abundance of immune cell populations in tumor", "setting": "[4]", "value": "increased lymphocyte representation"}
    ]}
  ]
}
